Assay results: patent publication US20220127568A1, “COMPOSITIONS AND METHODS FOR GENERATING HAIR CELLS BY INHIBITING EPIGENETIC TARGETS” (Frequency Therapeutics, Inc., priority 2019, published 2022)
“Also recorded” adds a separate entry of the source. Where two headings read alike, the source gives them in different places.

How the values were obtained:
[1] = cited from earlier work; for Human Plasma Conc.: LSD1 inhibitors
[2] = test system: Lgr5 GFP+ cochlear progenitor cells; test: Lgr5+ Assay (Stem Cell Proliferation Assay); format: cell-based; conditions: for Lgr5 GFP(+) cell count / Lgr5 GFP(+) cell proliferation percentage / enrichment of Lgr5 GFP+ cells (y-axis: Lgr5 GFP(+) cell count): EFI-CV
[3] = test system: Lgr5+ cochlear progenitor cells; test: Quantification of Lgr5+ cochlear progenitor cell proliferation, expansion and enrichment (3D Matrigel culture, Celigo imaging, GFP(+) cell area); format: cell-based, mouse; conditions: for proliferation or enrichment of cochlear progenitor cells: inhibitor alone
[4] = EZH2 inhibitors, <= is the upper end of a wrapped range
[5] = EZH2 inhibitors, active concentration range, <= is the upper end of a wrapped range
[6] = active concentration of LSD1 inhibitor, >= is the lower end of a range wrapped over two lines

O=C(N/N=C/c1c(O)ccc2ccccc12)c1ccncc1 [AS 8351]
Human In Vivo Conc ([1]; KDM inhibitors): 1000 to 3000 µM
Lgr5 GFP(+) cell count ([2]; FIG. 37A: 2 μM AS 8351 + 3 μM CHIR99021 + 1 mM VPA in EFI vs EFI-C): further enhances Lgr5 GFP+ progenitor cell proliferation
Lgr5 GFP(+) cell proliferation percentage ([2]; FIG. 37B: 2 μM AS 8351 + 3 μM CHIR99021 + 1 mM VPA in EFI vs EFI-C): further enhances enrichment
Lgr5+ Assay ([2]; KDM inhibitors, active concentration range): 1 to 3 µM

CCS(=O)(=O)N1CCC(C(C)n2c(C)c(C(=O)NCc3c(OC)cc(C)[nH]c3=O)c3ccccc32)CC1 (stereo not shown) [CPI-169]
Human In Vivo Conc [1, 4]: 1 to 10 µM
Lgr5+ Assay [2, 5]: 0.1 to 10 µM
Lgr5 GFP(+) cell count ([2]; FIG. 11A: 1.11 μM CPI-169 + 4 μM CHIR99021 in EFI vs EFI-C): enhances Lgr5 GFP+ progenitor cell proliferation
Lgr5 GFP(+) cell area ([2]; FIG. 33A: 1.11 μM CPI-169 + 4 μM CHIR99021 in EFI vs CHIR alone): enhances Lgr5 GFP+ progenitor cell proliferation
Lgr5 GFP(+) cell area percentage ([2]; FIG. 33B: 1.11 μM CPI-169 + 4 μM CHIR99021 in EFI vs CHIR alone): enhances enrichment

COc1cc(C)[nH]c(=O)c1CNC(=O)c1c(C)n([C@H](C)C2CCOCC2)c2ccccc12 [CPI-360]
Human In Vivo Conc [1, 4]: 1 to 10 µM
Lgr5+ Assay [2, 5]: 0.1 to 10 µM
Lgr5 GFP(+) cell area ([2]; FIG. 12A: 0-30 μM CPI-360 alone in EFI): does not proliferate
Lgr5 GFP(+) cell area percentage ([2]; FIG. 12B: 0-30 μM CPI-360 alone in EFI): does not enrich
Lgr5 GFP(+) cell area ([2]; FIG. 13A-16A: 3.33 μM CPI-360 + 4 μM CHIR99021 in EFI vs CHIR alone): enhances Lgr5 GFP+ progenitor cell proliferation; also recorded: enhances Lgr5 GIP+ progenitor cell proliferation
Lgr5 GFP(+) cell area percentage ([2]; FIG. 13B-16B: 3.33 μM CPI-360 + 4 μM CHIR99021 in EFI vs CHIR alone): enhances enrichment

CCN(c1cc(C#CCN2CCOCC2)cc(C(=O)NCc2c(C)cc(C)[nH]c2=O)c1C)[C@H]1CC[C@H](N(C)CCOC)CC1 [EPZ011989]
Lgr5 GFP(+) cell area ([2]; FIG. 25A: 0-10 μM EPZ011989 alone in EFI): does not proliferate
enrichment of Lgr5 GFP+ cells (y-axis: Lgr5 GFP(+) cell area) ([2]; FIG. 25B: 0-10 μM EPZ011989 alone in EFI): does not enrich
Lgr5 GFP(+) cell area ([2]; FIG. 26A-29A: 123 nM EPZ011989 + 4 uM CHIR99021 in EFI vs CHIR alone): enhances Lgr5 GFP+ progenitor cell proliferation
Lgr5 GFP(+) cell area percentage ([2]; FIG. 26B-29B: 123 nM EPZ011989 + 4 uM CHIR99021 in EFI vs CHIR alone): enhances enrichment
proliferation or enrichment of cochlear progenitor cells [3]: does not promote proliferation or enrichment

O=C(O)c1ccc(CN2CCC(CN[C@@H]3C[C@H]3c3ccccc3)CC2)cc1 [GSK2879552]
Lgr5 GFP(+) cell count ([2]; FIG. 4A: 370 nM GSK2879552 + 4 μM CHIR99021 + 1 mM VPA in EFI vs EFI-C): enhances Lgr5 GFP+ progenitor cell proliferation
Lgr5 GFP(+) cell proliferation percentage ([2]; FIG. 4B: 370 nM GSK2879552 + 4 μM CHIR99021 + 1 mM VPA in EFI vs EFI-C): enhances enrichment
Lgr5+ progenitor cell proliferation and enrichment ([3]; inhibitor 370 nM with CHIR99021 (4 μM) and VPA (1 mM)): proliferation and enrichment are enhanced

c1ccc([C@@H]2C[C@H]2NC2CCNCC2)cc1 [GSK-LSD1]
Human Plasma Conc. [1]: 1 to 100 nM
Lgr5 GFP(+) cell count ([2]; FIG. 5A: 4.5 nM GSK-LSD1 + 4 μM CHIR99021 + 1 mM VPA in EFI vs EFI-C): enhances Lgr5 GFP+ progenitor cell proliferation
Lgr5 GFP(+) cell proliferation percentage ([2]; FIG. 5B: 4.5 nM GSK-LSD1 + 4 μM CHIR99021 + 1 mM VPA in EFI vs EFI-C): enhances enrichment
Lgr5+ Assay [2, 6]: ≥ 4 nM-

CC(=O)O.Cc1cc(C)c(CN2CCc3c(Cl)cc(-c4c(C)noc4C)c(Cl)c3C2=O)c(=O)[nH]1 [PF 06726304 acetate]
Lgr5 GFP(+) cell area ([2]; FIG. 20A: 0-90 μM PF 06726304 acetate alone in EFI): does not proliferate
enrichment of Lgr5 GFP+ cells (y-axis: Lgr5 GFP(+) cell area) ([2]; FIG. 20B: 0-90 μM PF 06726304 acetate alone in EFI): does not enrich
Lgr5 GFP(+) cell area ([2]; FIG. 21A, 22A: 370 nM PF 06726304 acetate + 4 μM CHIR99021 in EFI vs CHIR alone): enhances Lgr5 GFP+ progenitor cell proliferation
Lgr5 GFP(+) cell area percentage ([2]; FIG. 21B, 22B: 370 nM PF 06726304 acetate + 4 μM CHIR99021 in EFI vs CHIR alone): enhances enrichment
Lgr5+ progenitor cell enrichment ([3]; in combination with CHIR99021 (FIG. 23, FIG. 24)): enriched
proliferation or enrichment of cochlear progenitor cells [3]: does not promote the proliferation or enrichment

CN1CCN(C(=O)CN[C@H]2C[C@@H]2c2ccc(OCc3ccccc3)cc2)CC1.Cl.Cl [RN-1 HCl]
Lgr5 GFP(+) cell count ([2]; FIG. 38A: 0-30 μM RN-1 HCl alone in EFI vs EFI-C, EFI-CVT (7 μM tranylcypromine)): does not proliferate
enrichment of Lgr5 GFP+ cells (y-axis: Lgr5 GFP(+) cell count) ([2]; FIG. 38B: 0-30 μM RN-1 HCl alone in EFI vs EFI-C, EFI-CVT): does not enrich
Lgr5 GFP(+) cell count ([2]; FIG. 39A: 41 nM RN-1 + 4 μM CHIR99021 + 1 mM VPA in EFI vs EFI-C, EFI-CVT): further enhances Lgr5 GFP+ progenitor cell proliferation
enrichment of Lgr5 GFP+ cells (y-axis: Lgr5 GFP(+) cell count) ([2]; FIG. 39B: 41 nM RN-1 + 4 μM CHIR99021 + 1 mM VPA in EFI vs EFI-C, EFI-CVT): enhances enrichment
proliferation or enrichment of cochlear progenitor cells [3]: does not promote the proliferation or enrichment

CN1CCN(C(=O)CN[C@H]2C[C@@H]2c2ccc(OCc3ccccc3)cc2)CC1.Cl.Cl [RN-1]
Human Plasma Conc. [1]: 1 to 100 nM
Lgr5+ Assay [2, 6]: 0.041 µM

NC1CC1c1ccccc1 (stereo not shown) [TCP]
Human Plasma Conc. Cmax ([1]; human plasma Cmax, >= and <= are the ends of a wrapped range): 30 to 200 ng/mL
Cmax ([1]; human plasma Cmax, read-out: Human Plasma Conc. Cmax (molar, in brackets)): 225 to 1500 nM
Lgr5+ Assay ([2]; active concentration of LSD1 inhibitor, <= is the upper end of a range wrapped over two lines): 0.1 to 20 µM

CCN(c1cc(-c2ccc(CN3CCOCC3)cc2)cc(C(=O)NCc2c(C)cc(C)[nH]c2=O)c1C)C1CCOCC1 [tazemetostat]
Human In Vivo Conc ([1]; EZH2 inhibitors, >= is the lower end of a wrapped range): (200-1600 nM)
Human In Vivo Conc ([1]; EZH2 inhibitors): 100 to 800 ng/mL
Lgr5+ Assay [2, 5]: 0.1 to 10 µM
